Measured values from patent US11065235B2, “Substituted methanopyrido [2, 1-a] isoindolones as mAChR modulators for treating various associated pathophysiological conditions and process for preparation thereof” (COUNCIL OF SCIENTIFIC & INDUSTRIAL RESEARCH, priority 2017, dated 2021).
Entries after “also recorded” stand apart in the source; their conditions may differ. Read-outs that look alike come from different tables or passages of the source.

Experiments:
[1] = tested on: Scopolamine induced memory deficit; assay: Novel object recognition (NOR) test, scopolamine induced memory deficit; type: in vivo, mice
Text: (§1) All animal experiments and procedures were executed in accordance with the guidelines established in the guide for the care and use of laboratory animals and were approved by the institutional animal ethics committee (IAEC) of CSIR-Central Drug Research Institute, Lucknow, India. In this study, male C57BL/6J mice (6-8 weeks old) weighing 22-25 g were used. They were housed on a 12-h light/dark cycle (lights on at 8.00 am) and food and water were provided ad libitum. Animals were acclimatized to the experimental room 30 minutes prior to the beginning of behavioral procedures. For experimental purpose, animals were randomly divided into four groups: vehicle, RG-02, scopolamine and scopolamine along with RG-02. In scopolamine along with RG-02 group, RG-02 (10 mg/kg, i.p) was injected thirty minutes prior to the scopolamine (0.5 mg/kg, i.p.) injections.
The NOR test was performed according to the protocol introduced by Ennaceur and Delacour (Ennaceur & Delacour, 1988) with slight modification.
The NOR task procedure consisted of three sessions—[…], familiarization and test session. During habituation session, the mouse was placed in an open field (Square box of 40×40×40 cm), facing the wall of the arena, and allowed to explore the entire arena for 10 minutes. Following habituation period of 10 minutes, the mouse was returned to its home cage.
Between every […] session, the whole arena was cleaned with 10% ethanol to reduce olfactory cues. […] During this session, the test animal was placed in the arena and was allowed to explore the entire arena with familiar and novel object, and its activity was also video recorded. To determine the retention of object memory, the recorded videos of test session were analyzed by independent observer who was unknown to treatment of mice to calculate the time spent in exploring both objects. Data are presented as % time of exploration of familiar or novel object, and discrimination index was calculated as per following equation: (Tn−Tf)/Tt: Discrimination Index […]

[2] = tested on: Scopolamine induced memory deficit; assay: Morris water maze (MWM) test, scopolamine induced learning deficit; type: in vivo, mice
Text: as §1
The Morris water maze (MWM) test was performed according to Morris 1984, with slight modifications. Circular pool of dimensions-100 cm diameter and 45 cm depth, which was filled up to 25 cm from bottom with white colour water. Temperature of water was adjusted to 24-25° C. Pool was divided into four quadrants and a square platform of 10×10 cm in was placed into the tank at a fixed location in the centre of one of the four imaginary quadrants. Training sessions were conducted for 3 consecutive days and on 4th day a probe trial was performed. During training session, mouse was gently placed into the water facing the edge of the pool of one of the quadrant. If the mouse was able to find the platform before the 60 sec cut-off, it was allowed to stay over the platform for 5 more seconds followed by returning to its home cage. […] Total three trials/day were run for each mouse with minimum interval of 10-15 minutes between two trials, and latency to reach the platform was calculated. On the fourth day, for the probe trial, the platform was removed and the time spent in respective quadrant was calculated.

human M2R = target: T1, human M2R (Homo sapiens, UniProt P08172); assay: GloSensor cAMP assay (Gi-mediated cAMP inhibition); type: cell-based; conditions: for IC50: agonist
T1 construct: expressed in transfected cells; host or cells: HEK-293T
T1 sequence (P08172 1-466): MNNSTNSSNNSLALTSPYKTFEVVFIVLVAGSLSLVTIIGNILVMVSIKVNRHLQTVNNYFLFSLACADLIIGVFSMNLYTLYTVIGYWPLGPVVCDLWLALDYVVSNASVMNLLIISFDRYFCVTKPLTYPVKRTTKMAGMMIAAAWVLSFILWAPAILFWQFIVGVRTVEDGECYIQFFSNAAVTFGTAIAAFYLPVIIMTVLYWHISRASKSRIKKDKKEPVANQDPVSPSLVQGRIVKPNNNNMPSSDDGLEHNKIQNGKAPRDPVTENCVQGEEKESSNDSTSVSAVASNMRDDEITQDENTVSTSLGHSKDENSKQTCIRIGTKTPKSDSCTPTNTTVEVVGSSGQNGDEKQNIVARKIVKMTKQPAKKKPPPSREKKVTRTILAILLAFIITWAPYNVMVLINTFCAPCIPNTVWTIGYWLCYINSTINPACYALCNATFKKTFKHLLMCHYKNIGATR
Method: To measure M2 muscarinic receptor induced (Gi-mediated) cAMP inhibition, HEK-293T cells (procured from NCCS, Pune) were co-transfected with human M2R and luciferase based cAMP biosensor (pGloSensor™-22F plasmid; Promega) using PEImax method of transfection in the ratio of 1:1. The transfected cells were incubated at 37° C. in tissue culture incubator with 5% CO2 for 14-16 hours. For GloSensor cAMP assay, after overnight incubation, media from the plate was aspirated and 100 μl of sodium luciferin solution in drug buffer (1×HBSS (pH7.4) and 20 mM HEPES) was added to the cell plates. The plates were then incubated at 37° C. in tissue culture incubator with 5% CO2 for 90 minutes. After incubation, cells were treated with 20 μl of 6× diluted standard carbamoyl choline (10000 nM to 0.01 nM) along with test compounds (in triplicates) and were incubated in a humidified tissue culture incubator at 37° C. with 5% CO2 for 10-15 minutes to get a steady state condition. Ligand incubation was followed by addition of 20 μl of 7×(70 μM) forskoline (FSK) to the plate. FSK incubation was followed by incubation at 37° C. for 10-15 minutes and measurement of luminescence per well using luminescence plate reader (BMG Labtech). The results were plotted as inhibition of FSK stimulated cAMP response (relative luminescence units) using nonlinear regression analysis by Graph-Pad prism V.

C57BL/6 mice = assay: Locomotor activity in open field arena; type: in vivo; conditions: 10 mg/kg i.p., acute, 60 minutes following injection, vs vehicle, p<0.05
Text: as §1
Locomotor activity was tested according to the previously published protocol (Kelly et al, 1998) with slight modifications. Briefly, mice were put in the centre of a clear Plexiglas (40×40×30 cm) open-field arena and were allowed to explore the entire arena for 30 minutes. After 30 minutes of exploration, animals were injected with either RG-02 (10 mg/kg; i.p.) or 0.9% normal saline and were allowed to explore the arena for further 60 minutes. […]

human M5R = target: T2, human M5R (Homo sapiens, UniProt P08912); assay: NFAT-luciferase assay, M5; type: cell-based
T2 construct: expressed in transfected cells; host or cells: HEK-293T
T2 sequence (P08912 1-532): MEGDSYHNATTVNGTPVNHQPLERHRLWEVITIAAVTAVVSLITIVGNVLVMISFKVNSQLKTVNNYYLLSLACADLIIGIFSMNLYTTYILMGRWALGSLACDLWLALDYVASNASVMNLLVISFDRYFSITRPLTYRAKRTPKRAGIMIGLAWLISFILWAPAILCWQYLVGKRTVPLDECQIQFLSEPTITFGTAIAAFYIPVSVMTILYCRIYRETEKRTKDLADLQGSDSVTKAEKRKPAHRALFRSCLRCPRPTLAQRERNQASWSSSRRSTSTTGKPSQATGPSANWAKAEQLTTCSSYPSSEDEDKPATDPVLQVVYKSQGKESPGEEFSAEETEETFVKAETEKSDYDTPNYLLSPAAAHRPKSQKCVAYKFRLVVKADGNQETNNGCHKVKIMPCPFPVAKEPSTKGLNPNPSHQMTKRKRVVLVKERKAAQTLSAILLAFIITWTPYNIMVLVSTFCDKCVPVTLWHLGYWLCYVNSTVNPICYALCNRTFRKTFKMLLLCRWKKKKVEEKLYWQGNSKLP
Method: (§2) To measure the agonist or antagonist activity at M1, M3 and M5 muscarinic receptor, NFAT-luciferase activity was performed in HEK-293T cells (procured from NCCS, Pune) by co-transfecting with human M1R or M3R or M5R and pGL4.30 (luc2P/NFAT-RE/Hygro; Promega Corp,) in 96 well format. The transfected cells were incubated at 37° C. in tissue culture incubator with 5% CO2 for 14-16 hours. To determine the if the test compounds are agonist, the transfected cells were treated with either 20 μl/well of carbamoyl choline (as a positive control) at various concentrations (10000 nM to 0.01 nM) or with various concentrations of test compounds (in triplicates) and were further incubated for 12 hrs in a humidified tissue culture incubator at 37° C. with 5% CO2. For antagonist mode assay, test compound incubation was followed by addition of 20 μl of 7 μM carbamoylcholine (agonist) to the plate. Following 12-14 hrs of drug treatment, media from the plate was aspirated and 100 μl of sodium luciferin solution (10 mg/ml) was added and luminescence per well was recorded using luminescence plate reader (BMG Labtech).

human M3R = target: T3, human M3R (Homo sapiens, UniProt P20309); assay: NFAT-luciferase assay, M3; type: cell-based
T3 construct: expressed in transfected cells; host or cells: HEK-293T
Method: as §2

human M1R = target: T4, human M1R (Homo sapiens, UniProt P11229); assay: NFAT-luciferase assay, M1; type: cell-based
T4 construct: expressed in transfected cells; host or cells: HEK-293T
T4 sequence (P11229 1-460): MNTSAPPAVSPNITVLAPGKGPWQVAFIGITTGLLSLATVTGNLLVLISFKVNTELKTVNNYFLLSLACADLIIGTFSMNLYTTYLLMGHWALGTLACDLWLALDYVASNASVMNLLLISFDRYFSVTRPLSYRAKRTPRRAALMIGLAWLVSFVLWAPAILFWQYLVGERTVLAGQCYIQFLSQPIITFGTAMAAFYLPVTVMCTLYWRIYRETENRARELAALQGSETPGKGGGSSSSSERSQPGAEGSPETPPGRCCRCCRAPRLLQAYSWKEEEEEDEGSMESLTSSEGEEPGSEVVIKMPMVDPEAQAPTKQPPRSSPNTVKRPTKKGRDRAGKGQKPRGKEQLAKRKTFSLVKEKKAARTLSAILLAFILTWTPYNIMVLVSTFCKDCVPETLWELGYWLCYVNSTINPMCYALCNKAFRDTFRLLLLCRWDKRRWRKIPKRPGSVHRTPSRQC
Method: as §2

T3 sequence (P20309 whole entry): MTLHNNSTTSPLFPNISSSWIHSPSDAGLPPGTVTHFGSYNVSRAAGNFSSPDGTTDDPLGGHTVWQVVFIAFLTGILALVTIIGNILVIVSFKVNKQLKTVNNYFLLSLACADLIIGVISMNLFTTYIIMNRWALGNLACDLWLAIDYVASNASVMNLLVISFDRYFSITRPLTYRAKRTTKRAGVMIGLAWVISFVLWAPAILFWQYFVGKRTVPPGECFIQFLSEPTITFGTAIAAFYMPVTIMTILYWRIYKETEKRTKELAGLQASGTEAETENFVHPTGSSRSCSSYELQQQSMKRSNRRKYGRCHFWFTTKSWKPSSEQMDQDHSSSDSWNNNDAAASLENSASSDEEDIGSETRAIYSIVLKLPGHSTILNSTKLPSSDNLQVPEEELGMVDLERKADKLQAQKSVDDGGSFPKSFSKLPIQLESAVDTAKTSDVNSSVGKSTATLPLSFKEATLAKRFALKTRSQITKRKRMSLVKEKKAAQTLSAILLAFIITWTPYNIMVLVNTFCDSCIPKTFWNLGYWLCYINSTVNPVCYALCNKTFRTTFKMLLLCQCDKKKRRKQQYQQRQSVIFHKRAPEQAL

## O=C1CCC[C@@H]2[C@@H]1C[C@@]1(S(=O)(=O)c3ccccc3)C(=O)[C@@H]3c4ccccc4[C@H]1N32 [RG-02, (4aS,6S,6aR,11S,12aR)-6-(phenylsulfonyl)-1,2,3,4a,5,6,6a,12a-octahydro-6,11-methanoisoindolo[2,1-a]quinoline-4,13(11H)-dione]
[1]; RG-02 10 mg/kg i.p. + scopolamine 0.5 mg/kg i.p., 7th day, vs scopolamine alone / vehicle
  percent time exploration for novel object: significantly increased
[1]; RG-02 10 mg/kg i.p. + scopolamine 0.5 mg/kg i.p., 7th day, vs scopolamine alone, p<0.05
  novel object discrimination index: significantly blocked the negative effect of scopolamine on novel object discrimination; also recorded: significantly increased
[2]; RG-02 10 mg/kg i.p. + scopolamine 0.5 mg/kg i.p., day 4, vs scopolamine alone
  time spent in platform quadrant (probe trial): increased the time spent in the quadrant with platform; also recorded: significantly increased
[2]; RG-02 alone 10 mg/kg i.p., vs vehicle
  learning the location of hidden platform: no per se effect
Human M2R
  agonist activity at M2 receptor (in words): most potent agonist at M2 receptor; also recorded: selective M2 muscarinic receptor agonist with high activity
Human M2R; M2, N.A. = not active, read-out: pIC50/pEC50 (Mean ± SEM) M2 (converted)
  IC50: 4.17 nM
Human M2R; read-out: IC50 at M2 receptor
  IC50: 4 nM
C57BL/6 mice
  locomotor activity (total horizontal distance travelled): significantly increased locomotor activity; also recorded: neurostimulatory effect; also recorded: significant increase in locomotor activity

## O=C1[C@@H]2c3ccccc3[C@H]3N2[C@@H]2CCCC(OS(=O)(=O)C(F)(F)F)=C2C[C@@]13S(=O)(=O)c1ccccc1 [RG-12, (6S,6aR,11S,12aR)-13-oxo-6-(phenylsulfonyl)-1,2,3,5,6,6a,11,12a-octahydro-6,11-methanoisoindolo[2,1-a]quinolin-4-yl trifluoromethanesulfonate]
Human M5R
  antagonist activity at M5 receptor (in words): very modest activity
Human M5R; M5, antagonist, N.A. = not active, read-out: pIC50/pEC50 (Mean ± SEM) M5 (converted)
  IC50: 269 nM
Human M3R
  antagonist activity at M3 receptor (in words): very modest activity
Human M3R; M1, M3 and M5 antagonist profiling
  selectivity among muscarinic receptors (in words): nonselective muscarinic receptor antagonist
Human M1R
  antagonist activity at M1 receptor (in words): very modest activity
Human M1R; M1, antagonist, N.A. = not active, read-out: pIC50/pEC50 (Mean ± SEM) M1 (converted)
  IC50: 129 nM

## CN1[C@@H]2C[C@@H](OC(=O)[C@H](CO)c3ccccc3)C[C@H]1[C@@H]1O[C@@H]12 [scopolamine, reference compound]
[1]; scopolamine alone 0.5 mg/kg i.p., vs vehicle, p<0.05
  exploration time for the novel object: marked reduction in the exploration time for the novel object
[2]; scopolamine alone 0.5 mg/kg i.p., Day-3
  latency to reach the platform: increased latency to reach the platform
[2]; scopolamine alone 0.5 mg/kg i.p., vs vehicle or RG-02
  time in quadrant with platform (probe trial): spent lesser time in quadrant with platform
